System: SEM cells
Test: cell viability relative to DMSO control; higher = less cytotoxic
Settings: 48 h
Method in brief: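 Viability values are per-plate percentages of DMSO wells, with background from cell-free wells. Library compounds in DMSO were pin-dosed, in an 11-point threefold series from 47 μM to 0.79 nM, onto NOMO1 or SEM (500 cells/well) or P12-Ichikawa (1000 cells/well) leukemia cells in 1536-well plates (5 μl). Those cells had been adapted for at least four passages in each medium, and CellTiter-Glo One luminescence was read after 48 h at 37°C.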

[1] = HPLM + 10% dialyzed FBS, 0.000781 µM
[2] = HPLM + 10% dialyzed FBS, 0.00234 µM
[3] = HPLM + 10% dialyzed FBS, 0.00702 µM
[4] = HPLM + 10% dialyzed FBS, 0.0211 µM
[5] = HPLM + 10% dialyzed FBS, 0.0632 µM
[6] = HPLM + 10% dialyzed FBS, 0.19 µM
[7] = HPLM + 10% dialyzed FBS, 0.569 µM
[8] = HPLM + 10% dialyzed FBS, 1.71 µM
[9] = HPLM + 10% dialyzed FBS, 5.12 µM
[10] = HPLM + 10% dialyzed FBS, 15.4 µM
[11] = HPLM + 10% dialyzed FBS, 46.1 µM
[12] = RPMI 5 mM glucose + 10% FBS, 0.000781 µM
[13] = RPMI 5 mM glucose + 10% FBS, 0.00234 µM
[14] = RPMI 5 mM glucose + 10% FBS, 0.00702 µM
[15] = RPMI 5 mM glucose + 10% FBS, 0.0211 µM
[16] = RPMI 5 mM glucose + 10% FBS, 0.0632 µM
[17] = RPMI 5 mM glucose + 10% FBS, 0.19 µM
[18] = RPMI 5 mM glucose + 10% FBS, 0.569 µM
[19] = RPMI 5 mM glucose + 10% FBS, 1.71 µM
[20] = RPMI 5 mM glucose + 10% FBS, 5.12 µM
[21] = RPMI 5 mM glucose + 10% FBS, 15.4 µM
[22] = RPMI 5 mM glucose + 10% FBS, 46.1 µM
[23] = RPMI 5 mM glucose + 10% dialyzed FBS, 0.000781 µM
[24] = RPMI 5 mM glucose + 10% dialyzed FBS, 0.00234 µM
[25] = RPMI 5 mM glucose + 10% dialyzed FBS, 0.00702 µM
[26] = RPMI 5 mM glucose + 10% dialyzed FBS, 0.0211 µM
[27] = RPMI 5 mM glucose + 10% dialyzed FBS, 0.0632 µM
[28] = RPMI 5 mM glucose + 10% dialyzed FBS, 0.19 µM
[29] = RPMI 5 mM glucose + 10% dialyzed FBS, 0.569 µM
[30] = RPMI 5 mM glucose + 10% dialyzed FBS, 1.71 µM
[31] = RPMI 5 mM glucose + 10% dialyzed FBS, 5.12 µM
[32] = RPMI 5 mM glucose + 10% dialyzed FBS, 15.4 µM
[33] = RPMI 5 mM glucose + 10% dialyzed FBS, 46.1 µM

Structure (SMILES) | cell viability [1] | cell viability [2] | cell viability [3] | cell viability [4] | cell viability [5] | cell viability [6] | cell viability [7] | cell viability [8] | cell viability [9] | cell viability [10] | cell viability [11] | cell viability [12] | cell viability [13] | cell viability [14] | cell viability [15] | cell viability [16] | cell viability [17] | cell viability [18] | cell viability [19] | cell viability [20] | cell viability [21] | cell viability [22] | cell viability [23] | cell viability [24] | cell viability [25] | cell viability [26] | cell viability [27] | cell viability [28] | cell viability [29] | cell viability [30] | cell viability [31] | cell viability [32] | cell viability [33]
Cc1cc(OCCC[S+](C)(=O)[O-])cc(C)c1-c1cccc(COc2ccc3c(c2)OC[C@H]3CC(=O)O)c1 | 104% | 113% | 110% | 104% | 107% | 101% | 96.5% | 99.9% | 98.3% | 112% | 91.1% | 105% | 104% | 105% | 114% | 103% | 91.8% | 106% | 98.4% | 85.7% | 98.6% | 63.1% | 97.7% | 132% | 109% | 118% | 95.5% | 108% | 109% | 105% | 93.1% | 105% | 65%
O=C(O)CCCCC(CCSCc1ccccc1)SCc1ccccc1 (stereo unspecified) | 87.7% | 116% | 111% | 110% | 104% | 115% | 113% | 131% | 111% | 119% | 102% | 106% | 102% | 91.5% | 101% | 118% | 124% | 110% | 121% | 115% | 107% | 99.6% | 100% | 106% | 121% | 138% | 116% | 117% | 108% | 125% | 117% | 108% | 93.5%
CC(C)=CCC/C(C)=C/CC/C(C)=C/CSc1ccccc1C(=O)O | 97.5% | 116% | 111% | 97.3% | 93.2% | 81.2% | 80% | 67.3% | 58.3% | 30.3% | 8.4% | 118% | 124% | 111% | 119% | 117% | 106% | 96.6% | 71.8% | 62.4% | 22.3% | 2.67% | 94.6% | 105% | 84.7% | 106% | 97.8% | 99.1% | 74.8% | 71.2% | 62.5% | 33.8% | 8.59%
CC(C)(F)C[C@H](N[C@@H](c1ccc(-c2ccc([S+](C)(=O)[O-])cc2)cc1)C(F)(F)F)C(=O)NC1(C#N)CC1 | 88.3% | 93.8% | 93.1% | 96.1% | 95.9% | 91% | 96.3% | 97.5% | 104% | 95.9% | 91.6% | 90.4% | 116% | 112% | 117% | 114% | 105% | 93.1% | 109% | 96.5% | 90.3% | 85.8% | 105% | 117% | 124% | 107% | 119% | 126% | 108% | 114% | 115% | 123% | 103%
CCN(CCO)CCCOc1ccc2c(Nc3cc(CC(=O)Nc4cccc(F)c4)[nH]n3)ncnc2c1 | 118% | 103% | 110% | 119% | 105% | 82.5% | 40.6% | 32.3% | 34.8% | 20.6% | 15.9% | 114% | 94.6% | 118% | 102% | 119% | 76.4% | 22.4% | 19.7% | 21.9% | 12.2% | 5.9% | 100% | 113% | 108% | 109% | 104% | 73.8% | 25.5% | 22.2% | 25% | 13.1% | 4.04%
CCN1\C=C(\C(O)=O)C(=O)C2=C1N=C(N3CCNCC3)C(=C2)F | 58.6% | 79.7% | 68.2% | 87.3% | 84.8% | 92.3% | 84.8% | 88.5% | 84.2% | 81% | 68% | 77.9% | 102% | 72% | 82% | 92.5% | 84.5% | 92.8% | 81.9% | 86% | 89.6% | 77.4% | 74.9% | 86.8% | 71.2% | 90.4% | 78.1% | 84% | 90.5% | 93.9% | 81.5% | 103% | 87.8%
O=C1CCC[C@@H]2[C@H]3CCCN4CCC[C@@H](CN12)[C@@H]34 | 44.2% | 65.4% | 55.2% | 65.6% | 72.7% | 73.2% | 72.3% | 78.1% | 67.5% | 71.3% | 73% | 73% | 87% | 75.5% | 82.4% | 92.8% | 92.2% | 93.2% | 84% | 63.1% | 80% | 72.6% | 60.4% | 79.1% | 62.4% | 89.7% | 73.9% | 82.6% | 77.6% | 72.3% | 64.2% | 68.5% | 68.3%

— the supplement of paper PMC11451515
